The record followed here is US20250099487A1, “COMPOSITION FOR PREVENTING OR TREATING PULMONARY FIBROSIS, COMPRISING TAURODEOXYCHOLIC ACID OR PHARMACEUTICALLY ACCEPTABLE SALT THEREOF AS ACTIVE INGREDIENT” (SHAPERON INC., priority 2022, published 2025).

Data set [1] relates to bleomycin-induced idiopathic pulmonary fibrosis animal model. The data set is described as follows: Lung weight changes in bleomycin-induced idiopathic pulmonary fibrosis animal model. In kind it is in vivo, C57BL/6 mice. How it is done:
Specifically, 9-week-old C57BL/6 mice were purchased and allowed to adapt to their environment for one week before the experiment was conducted. […] Water was provided ad libitum, and sterilized feed was used, allowing free access to food. […] The control group was administered saline instead of bleomycin and received a vehicle (0.5% CMC (carboxymethylcellulose) solution) at a dose of 10 mL/kg orally twice daily. Specifically, the mice in each group were sacrificed upon completion of the experiment, and their lungs were excised. The weights of the excised lungs were then measured.

The test system is the same in data set [2]. The data set is described as follows: Histopathological evaluation of pulmonary fibrosis (Crossman's Trichrome, Matsuse modification of the Ashcroft score). The data set is classed as in vivo, C57BL/6 mice. How it is done: Specifically, 9-week-old C57BL/6 mice were purchased and allowed to adapt to their environment for one week before the experiment was conducted. […] Water was provided ad libitum, and sterilized feed was used, allowing free access to food. […] The control group was administered saline instead of bleomycin and received a vehicle (0.5% CMC (carboxymethylcellulose) solution) at a dose of 10 mL/kg orally twice daily. Specifically, the mice in each group were sacrificed upon completion of the experiment, and their lungs were excised. The excised lungs were embedded in paraffin for histopathological evaluation and stained according to the Crossman's Trichrome method (Gray P. The Microtomist's Formulary and Guide. Published by Robert E. Krieger Publishing Co.). The histological changes in the lungs were assessed using the Matsuse modification of the Ashcroft score, as presented in Table 2 (Ashcroft H et al. J Clin Pathol (1988) 41:467-70; Matsuse T et al. Eur Respir J (1999) 13:71-77). [table]

The subject of the next data set is α-SMA. The data set can be described thus: Immunohistochemical analysis of α-SMA area in lung tissue. The data set is classed as in vivo, C57BL/6 mice. How it is done: (§1) Specifically, 9-week-old C57BL/6 mice were purchased and allowed to adapt to their environment for one week before the experiment was conducted. The experimental animals were maintained under conditions of 22±2° C., 55±10% relative humidity, and a 12-hour light/dark cycle. Water was provided ad libitum, and sterilized feed was used, allowing free access to food.
(§2) The pulmonary fibrosis group was orally administered a vehicle (0.5% CMC (carboxymethylcellulose) solution) at a dose of 10 mL/kg twice daily, while the experimental group was orally administered HY209 formulated in a 0.5% CMC solution to achieve final concentrations of 10, 30, and 60 mg/kg, also twice daily. The comparison group (Nintedanib administration group) was orally administered Nintedanib, formulated in a vehicle (0.1% Natrosol; Hydroxyethylcellulose solution) to achieve a final concentration of 60 mg/kg, twice daily. The pulmonary fibrosis group (Natrosol administration group) for comparison with the Nintedanib administration group received 10 mL/kg of 0.1% Natrosol solution orally twice daily. The control group was administered saline instead of bleomycin and received a vehicle (0.5% CMC (carboxymethylcellulose) solution) at a dose of 10 mL/kg orally twice daily.
Specifically, the mice in each group were sacrificed upon completion of the experiment, and their lungs were excised. The excised lungs were embedded in paraffin for histopathological evaluation, and sections were obtained and mounted onto slides. Subsequently, the expression distribution of the fibrosis-related factor α-SMA in the lung tissue was evaluated.
Immunohistochemical analysis of α-SMA was performed using polyclonal anti-α-SMA antibodies. Antigen retrieval was conducted using Target Retrieval Solution pH 6 (PT Link module, DAKO). […] The de novo accumulation level of α-SMA was evaluated using digital image analysis software (Visiopharm®). The results were expressed as the percentage (%) of the α-SMA area.

Data set [3] in a line: Body weight changes in bleomycin-induced idiopathic pulmonary fibrosis animal model. The data set is classed as in vivo, C57BL/6 mice. Particulars: HY209 administration group vs control group; oral BID Day 7-Day 21; measured daily. How it is done:
as §1, §2
Specifically, the body weight of the mice in each group was measured daily throughout the course of the experiment.

Data set [4] concerns human lung fibroblast cell line MRC5. The data set is described as follows: qPCR of fibrosis-related factors in TGF-β-treated MRC5 cells. The data set is classed as cell-based. Conditions: MRC5, TGF-β1 5 ng/mL, 48 hours. How it is done: Specifically, the human lung fibroblast cell line MRC5 was seeded at a density of 2×10^5 cells per well in a 6-well plate and incubated overnight to allow cell attachment. Subsequently, the medium was removed, and the cells were treated with TGF-β1 at a concentration of 5 ng/mL along with HY209 or TUDCA at concentrations of 0, 0.1, 1, and 10 μM, and cultured for 48 hours before collecting the cells. Following this, RNA was extracted from the cells using the RNeasy Mini Kit (QIAGEN), and cDNA was synthesized using Maxime™ RT PreMix (LiliF Diagnostic). qPCR measurements were conducted using Power SYBR™ Green PCR Master Mix (Thermo Scientific) in accordance with the manufacturer's instructions. Additionally, primers specific for Col1α1, α-SMA, and PAI-1 were utilized to assess their expression, and GAPDH was measured as the internal standard.

Another data set relates to IL-1β. The data set is described as follows: Inhibition of IL-1β production in PMA-differentiated U937 macrophages induced with BzATP (ELISA). In kind it is cell-based, human. Conditions: for IC50: Homo sapiens, U-937, U937 macrophages, 12 h pretreatment, BzATP 300 μM 12 h. How it is done: (§3) To evaluate the anti-inflammatory efficacy of HY209 and TUDCA, the human monocytic cell line U937 was treated with PMA (phorbol 12-myristate 13-acetate) to induce differentiation into macrophages.
Specifically, the human monocytic cell line U937 was seeded at a density of 70,000 cells per well in a 96-well plate and cultured for 24 hours in RPMI1640 medium containing 50 nM PMA (phorbol 12-myristate 13-acetate) to induce differentiation into macrophages. The medium was then removed from each well, and HY209 or TUDCA was administered at varying concentrations (HY209: 1, 0.5, 0.25, 0.125, 0.0625, 0.0312, 0.0156, 0.0078 μM; TUDCA: 1000, 316, 100, 31.6, 10, 3.16, 0.316, 0.1, 0.0316, 0.01, 0.00316 μM) for 12 hours. Subsequently, BzATP (2′(3′)-O-(4-Benzoylbenzoyl)adenosine 5′-triphosphate) was added to each well to achieve a final concentration of 300 μM, and the cells were incubated for an additional 12 hours. The supernatants were then collected, and IL-1β levels were measured using an IL-1β ELISA kit (R&D Systems) according to the manufacturer's instructions (FIG. 7a).
On the technique in general: In an ELISA, binding on a coated surface is turned into a signal by an enzyme label.

In a further data set the test system is TNF-α. The data set can be described thus: Inhibition of TNF-α production in PMA-differentiated U937 macrophages induced with Pam2CSK4 (ELISA). In kind it is cell-based, human. Conditions: for IC50: Homo sapiens, U-937, U937 macrophages, Pam2CSK4 50 ng/mL, 4 hours. The procedure:
as §3
Additionally, the human monocytic cell line U937 was cultured at a density of 5×10^6 cells in a 100 mm dish containing RPMI1640 medium supplemented with 4 nM PMA (phorbol 12-myristate 13-acetate) for 5 hours to induce differentiation into macrophages. The differentiated macrophages were then seeded into a 96-well plate at a density of 50,000 cells per well and incubated for 24 hours to allow for rest. Following this, the medium was replaced with serum-free medium, and the cells were cultured for an additional 12 hours. The medium was then removed from each well, and the cells were treated with 50 ng/mL of Pam2CSK4 (Pam2CysSerLys4) along with HY209 or TUDCA at varying concentrations (HY209: 10, 4, 2, 1, 0.5, 0.25, 0.125, 0.0625, 0.03125 μM; TUDCA: 100, 50, 25, 12.5, 6.25, 3.125, 1.562, 0.76 μM) for 4 hours. The supernatants were then collected, and TNF-α levels were measured using a TNF-α ELISA kit (R&D Systems) according to the manufacturer's instructions (FIG. 7b).

The mark [5] stands for this setting: 60 mg/kg oral BID Day 7-21, compared to the Natrosol administration group.
[6] abbreviates: 10 mg/kg oral BID Day 7-21, compared to the pulmonary fibrosis group.
Where [7] appears, read: 60 mg/kg oral BID Day 7-21, compared to the pulmonary fibrosis group.

`COC(=O)c1ccc2c(c1)NC(=O)/C2=C(\Nc1ccc(N(C)C(=O)CN2CCN(C)CC2)cc1)c1ccccc1` [Nintedanib, reference compound]: the lung weight result in data set [1] (setting [5]) is reported as “significant decrease”. Moreover, the “pulmonary fibrosis (Ashcroft score)” value in data set [2] (setting [5]) was “significant reduction”. The α-SMA area entry with α-SMA (Nintedanib 60 mg/kg oral BID Day 7-21, compared to both the pulmonary fibrosis group and the Natrosol administration group) is reported as “significant reduction”.
As to `C[C@H](CCC(=O)NCCS(=O)(=O)O)[C@H]1CC[C@H]2[C@@H]3CC[C@@H]4C[C@H](O)CC[C@]4(C)[C@H]3C[C@H](O)[C@]12C` [HY209, sodium taurodeoxycholate], in data set [3], the body weight changes entry is “no significant differences”. The lung weight entry in data set [1] (setting [6]) and in data set [1] (setting [7]) was “statistically significantly decreased” in each case. Also, the “pulmonary fibrosis (Ashcroft score)” value in data set [2] (setting [6]) and in data set [2] (setting [7]) was “statistically significantly decreased” in each case. Further, the α-SMA area result in the data set with α-SMA (10 mg/kg oral BID Day 7-21, compared to the pulmonary fibrosis group and the Natrosol administration group) was “significantly decreased”; with α-SMA (HY209 60 mg/kg oral BID Day 7-21, compared to the pulmonary fibrosis group and the Natrosol administration group) it was “significantly decreased”. The Col1α1 expression entry in data set [4] (0.1 μM), in data set [4] (1 μM) and in data set [4] (10 μM) was “reduced the expression” throughout. Also, the PAI-1 expression entry in data set [4] (0.1 μM), in data set [4] (1 μM) and in data set [4] (10 μM) was “inhibition” each time. Further, the α-SMA expression entry in data set [4] (0.1 μM), in data set [4] (1 μM) and in data set [4] (10 μM) was “inhibition” in each case. For the same compound, in the data set with IL-1β (HY209 vs TUDCA), the “IC50 for IL-1β, times lower than that of TUDCA” value was 34 times. Besides, the concentration for half-maximal inhibition (IC50) with IL-1β was 44 nM; in the data set on TNF-α it was 360 nM. In addition, the “IC50 for TNF-α, times lower than that of TUDCA” value in the data set on TNF-α (HY209 vs TUDCA) worked out at 36 times.
As for `C[C@H](CCC(=O)NCCS(=O)(=O)O)[C@H]1CC[C@H]2[C@@H]3[C@@H](O)C[C@@H]4C[C@H](O)CC[C@]4(C)[C@H]3CC[C@]12C` [TUDCA, tauroursodeoxycholic acid, reference compound], the Col1α1 expression result in data set [4] (0.1 μM) and in data set [4] (1 μM) was “increase in expression” in each case. Also, the PAI-1 expression result in data set [4] (0.1 μM) is listed as “did not demonstrate inhibitory effects”; in data set [4] (1 μM), “did not demonstrate inhibitory effects”; in data set [4] (10 μM), “inhibitory effects”. Besides, the α-SMA expression result was “did not demonstrate inhibitory effects” in data set [4] (0.1 μM), “did not demonstrate inhibitory effects” in data set [4] (1 μM) and “inhibitory effects” in data set [4] (10 μM). Also, the results for the IC50 in the data set on IL-1β and in the data set on TNF-α were 1500 nM and 13100 nM, respectively.

What is called IC50 is the midpoint of a concentration-inhibition curve.
